Data taken from the supplement of paper PMC10290057.
Where a name gives a salt, the structure may show the parent alone.

System: HCT116
Assay: efficacy (fitted maximal change in viability relative to DMSO control); higher = less cytotoxic (negative = loss of viability)
Conditions: 48 h
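Further: Luminescence-based viability readout, five doses per compound, normalized against on-plate DMSO and empty-well controls, followed by dose-response curve fitting for every drug.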

## O=C(O)Cc1cccc(OCCCN(Cc2cccc(C(F)(F)F)c2Cl)CC(c2ccccc2)c2ccccc2)c1 [GSK-3965]
  efficacy: -71.2%

## COc1nccc(-c2c(-c3ccc(F)cc3)ncn2C2CCNCC2)n1
  efficacy: -39.7%

## Cc1c(-c2c(-c3ccc(F)o3)sc3ncnc(O[C@@H](Cc4ccccc4OCc4ccnn4CC(F)(F)F)C(=O)O)c23)ccc(OCCN2CCN(C)CC2)c1Cl
  efficacy: 9.5%

## O=C1CCC[C@@H]2[C@H]3CCC[N+]4([O-])CCC[C@@H](CN12)[C@@H]34 (stereo partly specified) [Oxymatrine]
  efficacy: -29.8%

## Cc1ccc(NC(=O)[C@H]2CCCN(C(=O)c3c(C)cccc3F)[C@H]2c2ccc(NC3CCCC3)cc2)cc1C(F)(F)F [Avacopan]
  efficacy: -27.6%

## CN(C)N(C)C(=O)[C@@]1(Cc2ccccc2)CCCN(C(=O)[C@@H](Cc2c[nH]c3ccccc23)NC(=O)C(C)(C)N)C1 [Anamorelin]
  efficacy: -33.8%

## CCc1cc(Nc2nccc(-c3c(-c4ccc(OC)c(C(=O)Nc5c(F)cccc5F)c4)nc4ccccn34)n2)c(OC)cc1N1CCC(N2CCN([S+](C)(=O)[O-])CC2)CC1
  efficacy: -21%

## O=C\1N(N\C=C1[N]2C=CN=N2)C3=NC=NC(=C3)N4CCOCC4 [Molidustat]
  efficacy: -58.6%

## CCN1C(=O)\C(=C/C2=CN=C(NCCC3CCN(C)CC3)N=C12)C4=CC=C(C=C4Cl)C5=CN=CC(=N5)C [FRAX-1036]
  efficacy: -62.9%

## NCCCC[C@H](NC(=O)[C@@H](NC(=O)[C@H](Cc1c[nH]c2ccccc12)NC(=O)[C@H](CCCCN)NC(=O)[C@H](CCCCN)NC(=O)[C@H](Cc1c[nH]c2ccccc12)NC(=O)[C@H](Cc1c[nH]c2ccccc12)NC(=O)[C@H](CCCCN)NC(=O)[C@@H](N)CCCCN)C(c1ccccc1)c1ccccc1)C(N)=O [LTX-315]
  efficacy: -89.2%

## CN(CCOc1ccc(CC2SC(=O)NC2=O)cc1)c1ccccn1 (stereo unspecified) [Rosiglitazone]
  efficacy: -13.8%

## C[C@H]1CN(CCN1C2=CN=C(NC/3=C/C(=C\N(C)C3=O)C4=CC=NC(=C4CO)N5CC[N]6C7=C(CC(C)(C)C7)C=C6C5=O)C=C2)C8COC8 [RG-7845 (GDC-0853)]
  efficacy: -34.1%

## COC[C@@H](c1ccc(C(F)(F)F)cc1)N1CCN(C2(C)CCN(C(=O)c3c(C)ncnc3C)CC2)C[C@@H]1C
  efficacy: -15.4%

## C[C@@H]1C\C2=C(CCC(=O)C2)/[C@H]3CC[C@@]4(C)[C@@H](CC[C@@]4(O)C#C)[C@H]13 [TIBOLONE]
  efficacy: -7.38%

## CONC(=O)c1ccccc1Nc1cc(Nc2cc(C)nn2C(C)C)ncc1Cl
  efficacy: -40.7%

## O=c1cc(O)c(Cl)c[nH]1 [Gimeracil]
  efficacy: -6.4%

## Cc1nc2cc(C(=O)N3CCC4(CC3)CC(=O)c3c(cnn3C(C)C)C4)ccc2[nH]1
  efficacy: -35.5%

## CCN(CCCOc1ccc2c(Nc3cc(CC(=O)Nc4cccc(F)c4)[nH]n3)ncnc2c1)CCOP(=O)(O)O [AZD1152]
  efficacy: -24.9%

## C=C[C@H]1CN2CCC1C[C@@H]2C(O)c1ccnc2ccc(OC)cc12 (stereo partly specified) [Quinidine]
  efficacy: -25.6%

## Cc1cccc(-c2n[nH]cc2-c2ccc3ncccc3n2)n1 [SJN-2511]
  efficacy: 6.89%

## O=C(Cc1ccccc1)Nc1nnc(CCSCCc2nnc(NC(=O)Cc3ccccc3)s2)s1 [BPTES]
  efficacy: -25%

## CO[C@H]1/C=C/O[C@@]2(C)Oc3c(C)c(O)c4c(O)c(c5c(nc6cc(C)ccn65)c4c3C2=O)NC(=O)/C(C)=C\C=C\[C@H](C)[C@H](O)[C@@H](C)[C@@H](O)[C@@H](C)[C@H](OC(C)=O)[C@@H]1C [Rifaximin]
  efficacy: -88.6%

## O=C(CCN1CCN(C(=O)OCc2cc(Cl)cc(Cl)c2)CC1)c1ccc2[nH]c(=O)oc2c1 [PF-8380]
  efficacy: -11.3%

## N[C@@H](Cc1ccc(N(CCCl)CCCl)cc1)C(=O)O [Melphalan]
  efficacy: -56.5%

## O=[N+]([O-])c1ccc(-c2nc(-c3ccc(F)cc3)c(-c3ccncc3)[nH]2)cc1
  efficacy: -23.7%

## C[C@@]1(C(=O)Nc2ccc(F)nc2)CCCN1c1nc(Nc2cc(C3CC3)[nH]n2)c2cccn2n1
  efficacy: -59.3%

## COc1cccc(Nc2c(C(N)=O)cnc3c(C)cc([S+](=O)([O-])c4cccc(C(=O)N(C)C)c4)cc23)c1
  efficacy: -45.1%

## N#Cc1ccc(Oc2ccc3c(c2)COB3O)cc1 [AN-2728]
  efficacy: -21.2%

## C[C@H](NC(=O)/C(C#N)=C/c1cccc(Br)n1)c1ccccc1 [WP-1066]
  efficacy: -83.5%

## CCC(=O)O[C@@]1(CC[C@H]2[C@@H]3CCC/4=C/C(=O)CC[C@]4(C)[C@H]3CC[C@]12C)C(=O)CO [17 alpha-propionate]
  efficacy: -15.6%

## CCOC(=O)c1ccnc(CNCC(=O)N(CC)CCN(C)C)c1 [KDM5-C70]
  efficacy: 11.1%

## OC(=O)CNC(=O)\C1=C(/O)C2=CC=CC=C2N(CC3=CC=CC=C3)C1=O [IOX2]
  efficacy: 9.68%

## CCc1c(C(=O)NNC(=O)[C@@H](O)c2cc(F)cc(F)c2)ccc(O)c1C
  efficacy: -5.46%

## Cc1cc(Oc2ccc3nc(COc4ccc(CC5SC(=O)NC5=O)cc4)n(C)c3c2)cc(C)c1N (stereo unspecified) [Efatutazone]
  efficacy: -24.7%

## CCOC(=O)[C@@H](N)Cc1ccc(-c2cc(O[C@H](c3ccc(Cl)cc3-n3ccc(C)n3)C(F)(F)F)nc(N)n2)cc1 [Telotristat Etiprate (LX 1606 Hippurate)]
  efficacy: -95.9%

## O=C(Nc1cccc(C(F)(F)F)c1)c1cccc2cc(Oc3cc(CO)ncn3)ccc12 [BFH-772]
  efficacy: 15.5%

## CC[C@@H]1C(=O)N(C)c2cnc(Nc3ccc(C(=O)NC4CCN(C)CC4)cc3OC)nc2N1C1CCCC1 [BI-2536]
  efficacy: -71.6%

## COc1ccnc(C[S+]([O-])c2nc3cc(OC(F)F)ccc3[nH]2)c1OC (stereo unspecified) [Pantoprazole]
  efficacy: -34.5%

## O=C(Nc1cc(Cl)cc2c1[nH]c1cnccc12)c1cccnc1 [PS-1145]
  efficacy: 18.5%

## C[C@@H]1CN(CC(=O)N2CC(C)(C)c3ncc(Cc4ccc(F)cc4)cc32)[C@@H](CN2CCOC[C@H]2C)CN1 [AT-IAP]
  efficacy: -62.8%

## CC(C)(C)C#Cc1cc(N(C(=O)[C@H]2CC[C@H](C)CC2)[C@H]2CC[C@@H](O)CC2)c(C(=O)O)s1 [VX-222]
  efficacy: -59.3%

## C\C1=C(\SSC1=S)C2=CN=CC=N2 [Oltipraz]
  efficacy: -26.5%

## CNC(=O)c1ccc(N2C(=S)N(c3ccc(C#N)c(C(F)(F)F)c3)C(=O)C23CCC3)cc1F [RD-162]
  efficacy: -28.5%

## COCCOC1=CN=C2\C=C/N([C@H](C)C3=NN=C4[N]3C=C(C=C4F)C5=C[N](C)N=C5)C(=O)C2=C1 [AMG-337]
  efficacy: -4.95%

## CC[C@H](NC(=O)[C@H](C)NC)C(=O)N1C[C@@H](O)C[C@H]1Cc1c(-c2[nH]c3cc(F)ccc3c2C[C@@H]2C[C@H](O)CN2C(=O)[C@H](CC)NC(=O)[C@H](C)NC)[nH]c2cc(F)ccc12 [Birinapant]
  efficacy: -49.9%

## CC(=O)O[C@H]1C(=O)[C@]2(C)[C@@H](O)C[C@H]3OC[C@@]3(OC(C)=O)C2[C@H](OC(=O)C4=CC=CC=C4)[C@]5(O)C[C@H](OC(=O)[C@H](O)[C@@H](NC(=O)C6=CC=CC=C6)C7=CC=CC=C7)\C(=C1/C5(C)C)C (stereo partly specified) [Paclitaxel]
  efficacy: -68.3%

## COc1ccc(CC2SC(=O)NC2=O)cc1C(=O)NCc1ccc(C(F)(F)F)cc1 (stereo unspecified) [MK-767]
  efficacy: -17.2%

## O=C(O)c1ccc(CCCc2ccc(OCCc3ccc(F)cc3)cc2)o1 [D-942]
  efficacy: -66.5%

## CCC(C)CNCC(=O)N1CCc2sccc2C1c1cccc(C)n1 (stereo unspecified) [RUSKI-201]
  efficacy: -17%

## CCOP(=O)(OCC)C(C)NC(=O)N(CCCl)N=O (stereo unspecified) [Fotemustine]
  efficacy: 7.5%

## COc1c(C)cc(NC(=O)c2nn(Cc3ccc(F)cc3)c3c2CN(C(=O)c2ccc[nH]2)C[C@]3(C)C(N)=O)cc1C [GSK-864]
  efficacy: -35.1%

## COc1ccc([C@@H]2CC(=O)c3c(O)cc(O[C@@H]4O[C@H](CO[C@@H]5O[C@@H](C)[C@H](O)[C@@H](O)[C@H]5O)[C@@H](O)[C@H](O)[C@H]4O)cc3O2)cc1O [Aurantiamarin (Methyl Hesperidin)]
  efficacy: -15%

## CC[C@H](C)[N]1C=C(C)C2=C1C=C(C=C2C(=O)NC\C3=C(C)\C=C(\C)NC3=O)C4=CC=C(N=C4)N5CCNCC5 [GSK-126]
  efficacy: -125%

## CCOCc1nc2c(N)nc3ccccc3c2n1CC(C)(C)O [Resiquimod]
  efficacy: -14.3%

## COC(=O)N1CCN(Cc2cccc(NC(=O)Nc3ccc(C)nc3)c2F)CC1 [Omecamtiv mecarbil]
  efficacy: -28.6%

## O=C1NC(=O)/C(=C/c2cccc(C(F)(F)F)c2)S1 [SMI-4a]
  efficacy: -22.5%

## C[C@@H](c1ccc2nccn2c1)n1nnc2ncc(-c3cnn(C)c3)nc21 [Savolitinib]
  efficacy: -32.1%

## Cc1nnc(N[S+](=O)([O-])c2ccc(N)cc2)s1 [Sulfamethizole]
  efficacy: -10.7%

## CCN(CC)CCCC(C)Nc1ccnc2cc(Cl)ccc12 (stereo unspecified) [Chloroquine]
  efficacy: -24.3%

## O=C(CCCc1ccc2cccnc2n1)NCc1cc(-c2ccc(F)c(C(F)(F)F)c2)no1 [PRP003-062]
  efficacy: -32.2%

## CCC(C)C(N)\C1=N\C(CS1)C(=O)N[C@@H](CC(C)C)C(=O)N[C@H](CCC(O)=O)C(=O)N[C@@H]([C@@H](C)CC)C(=O)N[C@H]2CCCCNC(=O)[C@H](CC(N)=O)NC(=O)[C@@H](CC(O)=O)NC(=O)[C@H](CC3=CN=C[NH]3)NC(=O)[C@@H](CC4=CC=CC=C4)NC(=O)[C@@H](NC(=O)[C@@H](CCCN)NC2=O)[C@@H](C)CC (stereo partly specified) [Bacitracin (Zinc)]
  efficacy: -26.9%

## CC1(C)CCC(=C(\C1)C2=CC=C(Cl)C=C2)/CN3CCN(CC3)C4=CC(=C(C=C4)C(=O)N[S+]([O-])(=O)C5=CC=C(NCC6CCOCC6)C(=C5)[N+]([O-])=O)OC7=CN=C8[NH]C=CC8=C7 [Venetoclax (ABT-199)]
  efficacy: -73.3%

## COc1ccc(Nc2nccc(NCCO)n2)cc1 [Cardiogenol]
  efficacy: -11.7%

## c1cc(CN2CCCNCCNCCCNCC2)ccc1CN1CCCNCCNCCCNCC1 [Plerixafor hydrochloride]
  efficacy: -8.04%

## C/C=C(/C(=C/C)c1ccc(O)cc1)c1ccc(O)cc1 [Dienestrol]
  efficacy: -63.7%

## COC12C(COC(N)=O)\C3=C(/N1CC4C2N4C)C(=O)C(=C(N)/C3=O)\C (stereo unspecified) [Porfiromycin]
  efficacy: -81%
